Results: PubChem BioAssay AID651630 (Sanford-Burnham Center for Chemical Genomics, 2012)
The source made the active and inactive calls.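 How the source made its calls: active means lipid-stain IC50 at or below a set limit, with nuclear-stain toxicity IC50 at least five times higher; inactive means the rest.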

Legend:
[1] = tested on: TAG; experiment: TAG lipid buildup inhibition with viability readout – cell-based, panel, Nile Red and DAPI fluorescence, H9c2, dose response (AID 651630); conditions: H9c2 cells, Nile Red TAG fluorescence, oleic acid;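 further: cells exposed to compound overnight before fixation and staining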
[2] = tested on: DAPI; experiment: as above; conditions: H9c2 cells, DAPI nuclear fluorescence (cytotoxicity counter-readout), oleic acid

COc1ccc(C2c3cc4c(cc3OC(N3CCOCC3)C2C)OCO4)c(OC)c1 (stereo unspecified)
IC50 ([1]; mean of runs): 10.1 µM
IC50 ([1]; run 1): 6.4 µM
IC50 ([1]; run 2): 13.8 µM
IC50 cytotoxicity (DAPI nuclear signal decrease) ([2]; mean of runs): > 25 µM (inactive)
IC50 cytotoxicity (DAPI nuclear signal decrease) ([2]; run 1): > 25 µM
IC50 cytotoxicity (DAPI nuclear signal decrease) ([2]; run 2): > 25 µM

COc1cc(NC(=O)Nc2nc(C(N)Cc3ccc(C(F)(F)F)cc3)cs2)cc(OC)c1OC (stereo unspecified)
IC50 ([1]; mean of runs): 6.47 µM
IC50 ([1]; run 1): 7.7 µM
IC50 ([1]; run 2): 5.24 µM
IC50 cytotoxicity (DAPI nuclear signal decrease) ([2]; run 1): 24.9 µM
IC50 cytotoxicity (DAPI nuclear signal decrease) ([2]; run 2): > 25 µM

O=C(NCCc1c[nH]c2ccccc12)C1CCC(Cn2c(=S)[nH]c3ccccc3c2=O)CC1 (stereo unspecified)
IC50 ([1]; run 1): > 25 µM
IC50 ([1]; run 2): 22.2 µM
IC50 cytotoxicity (DAPI nuclear signal decrease) ([2]; mean of runs): > 25 µM (inactive)
IC50 cytotoxicity (DAPI nuclear signal decrease) ([2]; run 1): > 25 µM
IC50 cytotoxicity (DAPI nuclear signal decrease) ([2]; run 2): > 25 µM

COCCCn1c(N)c(C(=O)Nc2ccccc2)c2nc3ccccc3nc21
IC50 ([1]; mean of runs): 13.5 µM
IC50 ([1]; run 1): 11.8 µM
IC50 ([1]; run 2): 15.2 µM
IC50 cytotoxicity (DAPI nuclear signal decrease) ([2]; mean of runs): > 25 µM (inactive)
IC50 cytotoxicity (DAPI nuclear signal decrease) ([2]; run 1): > 25 µM
IC50 cytotoxicity (DAPI nuclear signal decrease) ([2]; run 2): > 25 µM

N#CC1=C(N)Oc2cc(Nc3ccccc3)ccc2C1c1ccncc1 (stereo unspecified)
IC50 ([1]; run 1): 19.8 µM
IC50 ([1]; run 2): > 25 µM
IC50 cytotoxicity (DAPI nuclear signal decrease) ([2]; run 1): 23.2 µM
IC50 cytotoxicity (DAPI nuclear signal decrease) ([2]; run 2): > 25 µM

C=CC[C@@H](CC(=O)N(CCO)Cc1ccccc1)C(=O)N[C@H](COC(=O)[C@@H](CC=C)Cc1ccc(F)cc1)Cc1c[nH]c2ccccc12
IC50 ([1]; mean of runs): 8.92 µM
IC50 ([1]; run 1): 7.83 µM
IC50 ([1]; run 2): 10 µM
IC50 cytotoxicity (DAPI nuclear signal decrease) ([2]; mean of runs): > 25 µM (inactive)
IC50 cytotoxicity (DAPI nuclear signal decrease) ([2]; run 1): > 25 µM
IC50 cytotoxicity (DAPI nuclear signal decrease) ([2]; run 2): > 25 µM

COc1cc(C2=NOC(C(=O)NCc3cccs3)C2)cc(OC)c1OC (stereo unspecified)
IC50 ([1]; mean of runs): 13.7 µM
IC50 ([1]; run 1): 17.3 µM
IC50 ([1]; run 2): 10.1 µM
IC50 cytotoxicity (DAPI nuclear signal decrease) ([2]; mean of runs): > 25 µM (inactive)
IC50 cytotoxicity (DAPI nuclear signal decrease) ([2]; run 1): > 25 µM
IC50 cytotoxicity (DAPI nuclear signal decrease) ([2]; run 2): > 25 µM

CC(=O)OC12COC1CC(O)C1(C)C(=O)C(O)C3=C(C)C(O)CC(O)(C(OC(=O)c4ccccc4)C21)C3(C)C (stereo unspecified)
IC50 ([1]; mean of runs): 9.4 µM
IC50 ([1]; run 1): 9.73 µM
IC50 ([1]; run 2): 9.07 µM
IC50 cytotoxicity (DAPI nuclear signal decrease) ([2]; mean of runs): > 25 µM (inactive)
IC50 cytotoxicity (DAPI nuclear signal decrease) ([2]; run 1): > 25 µM
IC50 cytotoxicity (DAPI nuclear signal decrease) ([2]; run 2): > 25 µM

CC(C)c1ccc(NC(=O)Nc2nc(C(N)COCc3ccccc3)cs2)cc1 (stereo unspecified)
IC50 ([1]; run 1): > 25 µM
IC50 ([1]; run 2): 14 µM
IC50 cytotoxicity (DAPI nuclear signal decrease) ([2]; mean of runs): 20.2 µM (inactive)
IC50 cytotoxicity (DAPI nuclear signal decrease) ([2]; run 1): 20.8 µM
IC50 cytotoxicity (DAPI nuclear signal decrease) ([2]; run 2): 19.7 µM

Cc1noc(C)c1-c1ccc2ncnc(NCC3CCCCN3C)c2c1 (stereo unspecified)
IC50 ([1]; mean of runs): > 25 µM (inactive)
IC50 ([1]; run 1): > 25 µM
IC50 ([1]; run 2): > 25 µM
IC50 cytotoxicity (DAPI nuclear signal decrease) ([2]; mean of runs): > 25 µM (inactive)
IC50 cytotoxicity (DAPI nuclear signal decrease) ([2]; run 1): > 25 µM
IC50 cytotoxicity (DAPI nuclear signal decrease) ([2]; run 2): > 25 µM

Cc1nn(-c2ccccc2)c2c1CC(=O)Nc1ccccc1-2
IC50 ([1]; mean of runs): 8.97 µM
IC50 ([1]; run 1): 7.74 µM
IC50 ([1]; run 2): 10.2 µM
IC50 cytotoxicity (DAPI nuclear signal decrease) ([2]; mean of runs): > 25 µM (inactive)
IC50 cytotoxicity (DAPI nuclear signal decrease) ([2]; run 1): > 25 µM
IC50 cytotoxicity (DAPI nuclear signal decrease) ([2]; run 2): > 25 µM

O=C(c1ccoc1)N1CCN(c2cc(-c3cccnc3)nc3cc(-c4cccc(Cl)c4)nn23)CC1
IC50 ([1]; mean of runs): 4.93 µM
IC50 ([1]; run 1): 3.16 µM
IC50 ([1]; run 2): 6.71 µM
IC50 cytotoxicity (DAPI nuclear signal decrease) ([2]; run 1): > 25 µM
IC50 cytotoxicity (DAPI nuclear signal decrease) ([2]; run 2): > 25 µM

c1ccc(N=NC2=NN(c3ccccc3)CS2)cc1
IC50 ([1]; mean of runs): 3.69 µM
IC50 ([1]; run 1): 3.57 µM
IC50 ([1]; run 2): 3.8 µM
IC50 cytotoxicity (DAPI nuclear signal decrease) ([2]; run 1): > 25 µM
IC50 cytotoxicity (DAPI nuclear signal decrease) ([2]; run 2): > 25 µM

CCCC(=O)Nc1nc2ccc(NC(=O)c3c(F)c(F)c(OC)c(F)c3F)cc2s1
IC50 ([1]; mean of runs): 6.21 µM
IC50 ([1]; run 1): 6.68 µM
IC50 ([1]; run 2): 5.73 µM
IC50 cytotoxicity (DAPI nuclear signal decrease) ([2]; mean of runs): > 25 µM (inactive)
IC50 cytotoxicity (DAPI nuclear signal decrease) ([2]; run 1): > 25 µM
IC50 cytotoxicity (DAPI nuclear signal decrease) ([2]; run 2): > 25 µM

Cc1[nH]c2ccccc2c1C(c1ccccn1)N1CCC(C)CC1 (stereo unspecified)
IC50 ([1]; mean of runs): 15.5 µM (inactive)
IC50 ([1]; run 1): 14.8 µM
IC50 ([1]; run 2): 16.2 µM
IC50 cytotoxicity (DAPI nuclear signal decrease) ([2]; mean of runs): 21.8 µM (inactive)
IC50 cytotoxicity (DAPI nuclear signal decrease) ([2]; run 1): 21.2 µM
IC50 cytotoxicity (DAPI nuclear signal decrease) ([2]; run 2): 22.4 µM

C=CC[C@@H](CC(=O)N(CCO)Cc1ccccc1)C(=O)N[C@H](COC(=O)[C@@H](CC=C)Cc1ccc(F)cc1)Cc1ccccc1
IC50 ([1]; mean of runs): 6.97 µM
IC50 ([1]; run 1): 7.28 µM
IC50 ([1]; run 2): 6.67 µM
IC50 cytotoxicity (DAPI nuclear signal decrease) ([2]; mean of runs): > 25 µM (inactive)
IC50 cytotoxicity (DAPI nuclear signal decrease) ([2]; run 1): > 25 µM
IC50 cytotoxicity (DAPI nuclear signal decrease) ([2]; run 2): > 25 µM

N#C/C(=C\c1cc([N+](=O)[O-])c(N2CCCCC2)cc1N1CCCCC1)c1nn(-c2ccccc2)c(N)c1C#N
IC50 ([1]; mean of runs): > 25 µM (inactive)
IC50 ([1]; run 1): > 25 µM
IC50 ([1]; run 2): > 25 µM
IC50 cytotoxicity (DAPI nuclear signal decrease) ([2]; mean of runs): > 25 µM (inactive)
IC50 cytotoxicity (DAPI nuclear signal decrease) ([2]; run 1): > 25 µM
IC50 cytotoxicity (DAPI nuclear signal decrease) ([2]; run 2): > 25 µM

CC(CC(=O)Nc1ccc2c(c1)c(=O)n(C)n2-c1ccc2ccccc2c1)C(F)(F)F (stereo unspecified)
IC50 ([1]; mean of runs): > 25 µM (inactive)
IC50 ([1]; run 1): > 25 µM
IC50 ([1]; run 2): > 25 µM
IC50 cytotoxicity (DAPI nuclear signal decrease) ([2]; mean of runs): > 25 µM (inactive)
IC50 cytotoxicity (DAPI nuclear signal decrease) ([2]; run 1): > 25 µM
IC50 cytotoxicity (DAPI nuclear signal decrease) ([2]; run 2): > 25 µM
